Measurements taken from patent US20230399341A1, “7-PHENYL SUBSTITUTED 2-AMINOQUINAZOLINE INHIBITORS OF HPK1” (MERCK SHARP & DOHME LLC, priority 2020, published 2023).

Target: T1, Human HPK1, catalytic domain (Homo sapiens, UniProt Q92918)
T1 sequence (Q92918 1-346): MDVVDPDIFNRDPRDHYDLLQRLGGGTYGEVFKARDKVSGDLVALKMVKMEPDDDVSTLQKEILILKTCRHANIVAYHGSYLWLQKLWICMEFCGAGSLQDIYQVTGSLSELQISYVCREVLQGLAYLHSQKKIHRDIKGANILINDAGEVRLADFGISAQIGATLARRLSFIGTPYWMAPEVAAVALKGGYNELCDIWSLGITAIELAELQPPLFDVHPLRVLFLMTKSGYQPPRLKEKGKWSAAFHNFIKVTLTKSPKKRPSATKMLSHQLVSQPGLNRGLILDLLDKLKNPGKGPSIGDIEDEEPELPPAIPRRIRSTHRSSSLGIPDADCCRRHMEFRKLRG
Test: HPK1-SLP76 TR-FRET Assay
Format: biochemical
Conditions: 75 pM HPK1, ATP 10 uM, SLP76 10 nM, 30 min pre-incubation, 60 min reaction

| SMILES | IC50 [nM] |
| --- | --- |
| COc1cc2c(cc1Nc1ncc3ccc(-c4cccc(C5CCC(=O)N5)c4)cc3n1)CN(C)CC2 (racemic) [Compound 1-99, (R and S)-5-(3-{2-[(6-methoxy-2-methyl-1,2,3,4-tetrahydroisoquinolin-7-yl)amino]quinazolin-7-yl}phenyl)pyrrolidin-2-one] | 120 |
| COc1cc2c(cc1Nc1ncc3c(N)c(F)c(-c4cnc5c(c4C)NCCO5)cc3n1)C(CO)N(C)CC2 (racemic) [Compound 2-46, (R and S)-(7-{[5-amino-6-fluoro-7-(8-methyl-2,3-dihydro-1H-pyrido[2,3-b][1,4]oxazin-7-yl)quinazolin-2-yl]amino}-6-methoxy-2-methyl-1,2,3,4-tetrahydroisoquinolin-1-yl)methanol] | 3.09 |
| COc1cc2c(cc1Nc1ncc3c(N)c(F)c(-c4cnc5c(c4C)NCCO5)cc3n1)C(C)N(C)C(C)C2 (racemic) [Compound 2-48, (R,R and S,S)-6-fluoro-N~2~-(6-methoxy-1,2,3-trimethyl-1,2,3,4-tetrahydroisoquinolin-7-yl)-7-(8-methyl-2,3-dihydro-1H-pyrido[2,3-b][1,4]oxazin-7-yl)quinazoline-2,5-diamine] | 0.696 |
| COc1cc2c(cc1Nc1ncc3ccc(N4CC(C)(CO)OC4=O)cc3n1)CN(C)CC2 (racemic) [Compound 3-7, (S and R)-5-(hydroxymethyl)-3-{2-[(6-methoxy-2-methyl-1,2,3,4-tetrahydroisoquinolin-7-yl)amino]quinazolin-7-yl}-5-methyl-1,3-oxazolidin-2-one] | 45.5 |
| CNCC1CN(c2ccc3cnc(Nc4cc5c(cc4OC)CCN(C)C5)nc3c2)C(=O)O1 (racemic) [Compound 3-12, (S and R)-3-12-[(6-methoxy-2-methyl-1,2,3,4-tetrahydroiso-quinolin-7-yl)amino]quinazolin-7-yl}-5-[(methylamino)methyl]-1,3-oxazolidin-2-one] | 94.2 |
| COc1cc2c(cc1Nc1ncc3ccc(-n4nc(C)nc4C4CCCN4)cc3n1)CN(C)CC2 (racemic) [Compound 3-19, (S and R)-N-(6-methoxy-2-meth-yl-1,2,3,4-tetrahydroisoquinolin-7-yl)-7-[3-methyl-5-(pyrrolidin-2-yl)-1H-1,2,4-triazol-1-yl]quin-azolin-2-amine] | 638 |
| COc1cc2c(cc1Nc1ncc3ccc(N4CCCC(CN5CCCC5=O)C4)cc3n1)CN(C)CC2 (racemic) [Compound 3-20, (S and R)-1-1(1-12-[(6-methoxy-2-methyl-1,2,3,4-tetrahydroiso-quinolin-7-yl)amino]quinazolin-7-yl}piperidin-3-yl)methyl]-pyrrolidin-2-one] | 771 |
| COc1cc2c(cc1Nc1ncc3ccc(NCC4CNC(=O)O4)cc3n1)CN(C)CC2 (racemic) [Compound 3-26, (S and R)-5-[({2-1(6-methoxy-2-methyl-1,2,3,4-tetrahydroiso-quinolin-7-yl)amino]quinazolin-7-yl}amino)methyl]-1,3-oxazol-idin-2-one] | 149 |
| COc1cc2c(cc1Nc1ncc3ccc(NCC4CCS(=O)(=O)C4)cc3n1)CN(C)CC2 (racemic) [Compound 3-37, (S and R)-3-1({2-[(6-methoxy-2-methyl-1,2,3,4-tetrahydroiso-quinolin-7-yl)amino]quinazolin-7-yl}amino)methyl]-1lambda~ 6~-thiolane-1,1-dione] | 73.1 |

Further molecules by falling IC50, results first:

| IC50 [nM] | SMILES |
| --- | --- |
| 391 | COc1cc2c(cc1Nc1ncc3ccc(N4CC5(CCOC5)OC4=O)cc3n1)CN(C)CC2 (racemic) [Compound 3-3, (S and R)-3-{2-[(6-methoxy-2-methyl-1,2,3,4-tetrahydroiso-quinolin-7-yl)amino]quinazolin-7-yl}-1,7-dioxa-3-azaspiro[4.4]-nonan-2-one] |
| 228 | COc1cc2c(cc1Nc1ncc3ccc(NC4CCCC(O)C4)cc3n1)CN(C)CC2 (racemic) [Compound 3-39, (±)-3-({2-[(6-methoxy-2-methyl-1,2,3,4-tetrahydroisoquinolin-7-yl)amino]quinazolin-7-yl}-amino)cyclohexan-1-ol] |
| 189 | COc1cc2c(cc1Nc1ncc3ccc(N4CC(O)(C(F)(F)F)C4)cc3n1)CN(C)CC2 (racemic) [Compound 3-54, (S and R)-1-12-[(6-methoxy-2-methyl-1,2,3,4-tetrahydroiso-quinolin-7-yl)amino]quinazolin-7-yl}-3-(trifluoromethyl)azet-idin-3-ol] |
| 148 | COc1cc2c(cc1Nc1ncc3ccc(N(C)CC4CNC(=O)O4)cc3n1)CN(C)CC2 (racemic) [Compound 3-30, (S and R)-5-1112-1(6-methoxy-2-methyl-1,2,3,4-tetrahydroiso-quinolin-7-yl)amino]quinazolin-7-yl}(methyl)amino]methyl}-1,3-oxazolidin-2-one] |
| 97.6 | COc1cc2c(cc1Nc1ncc3ccc(NC4CCN(C)C4=O)cc3n1)CN(C)CC2 (racemic) [Compound 3-56, (S and R)-3-({2-[(6-methoxy-2-methyl-1,2,3,4-tetrahydroiso-quinolin-7-yl)amino]quinazolin-7-yl}amino)-1-methylpyrrolidin-2-one] |
| 92.6 | COc1cc2c(cc1Nc1ncc3ccc(N4CC5(CCCNCC5)OC4=O)cc3n1)CN(C)CC2 (racemic) [Compound 3-8, (S and R)-3-{2-[(6-methoxy-2-methyl-1,2,3,4-tetrahydroiso-quinolin-7-yl)amino]quinazolin-7-yl}-1-oxa-3,8-diazaspiro[4.6]-undecan-2-one] |
| 82.4 | COc1cc2c(cc1Nc1ncc3ccc(N4CC(CN)OC4=O)cc3n1)CN(C)CC2 (racemic) [Compound 3-11, (S and R)-5-(aminomethyl)-3-{2-[(6-methoxy-2-methyl-1,2,3,4-tetrahydroisoquinolin-7-yl)amino]quinazolin-7-yl}-1,3-oxazolidin-2-one] |
| 63 | COc1cc2c(cc1Nc1ncc3ccc(N4CC(C(C)(C)O)OC4=O)cc3n1)CN(C)CC2 (racemic) [Compound 3-9, (S and R)-5-(2-hydroxypropan-2-yl)-3-{2-[(6-methoxy-2-meth-yl-1,2,3,4-tetrahydroisoquinolin-7-yl)amino]quinazolin-7-yl}-1,3-oxazolidin-2-one] |
| 22.2 | COc1cc2c(cc1Nc1ncc3ccc(-c4cnn(CC(C)O)c4)cc3n1)CN(C)CC2 (racemic) [Compound 1-102, (R and S)-1-(4-{2-[(6-methoxy-2-methyl-1,2,3,4-tetrahydroisoquinolin-7-yl)amino]quinazolin-7-yl}-1H-pyrazol-1-yl)propan-2-ol] |
| 9.36 | COc1cc2c(cc1Nc1ncc3ccc(N4CC(CO)OC4=O)cc3n1)CN(C)CC2 (racemic) [Compound 3-4, (S and R)-5-(hydroxymethyl)-3-{2-[(6-methoxy-2-methyl-1,2,3,4-tetrahydroisoquinolin-7-yl)amino]quinazolin-7-yl}-1,3-oxazolidin-2-one] |
| 0.0305 | Cc1c(-c2cc3nc(Nc4ccc5c(c4)C4CC5CN4C)ncc3c(N)c2F)cnc2c1NCCO2 (racemic) [Compound 2-79, (R,S and S,R)-6-fluoro-N2-(2-methyl-1,2,3,4-tetrahydro-1,4-methanoisoquinolin-7-yl)-7-(8-methyl-2,3-dihydro-1H-pyrido[2,3-b][1,4]oxazin-7-yl)quinazoline-2,5-diamine] |
